In US20250114313A1, “OLIGO-BENZAMIDE ANALOGS AND THEIR USE IN CANCER TREATMENT” (BOARD OF REGENTS, THE UNIVERSITY OF TEXAS SYSTEM, priority 2022, published 2025):

Experiments:
[1] = Tolerability of daily dosing in mice (pilot MTD); type: in vivo; conditions: daily oral or intraperitoneal, up to 100 mg/kg
Method: (§1) Animal Studies: All animal experiments were performed using UTHSA and UTSW IACUC approved protocols. For cell based xenograft tumor assays, TNBC cells (2×10^5-2×10^6) were mixed with an equal volume of matrigel and implanted in the mammary fat pads of 6-week-old female athymic nude mice as described^33. BALB/c mice were used for D2A1 syngeneic model. Once tumors reached measurable size, mice were divided into control (vehicle) and ERX-41 (10 mg/kg/oral) treatment groups. Mice bearing TNBC PDX tumors were purchased from Jackson laboratory (TM00089; TM00096; TM00098). TNBC PDX line UTPDX0001 establishment was earlier described^38. WHIM-20 ER+PDX model was purchased from Horizon Labs. OCa-PDX-38 was received from UTHSA ObGyn tissue procurement core. When tumors reached ˜750 mm^3 they were dissected into 2 mm^3 pieces and implanted into the mammary fat pads of 6 weeks old female SCID or NSG mice. When the tumor volume reached ˜200 mm^3, mice were randomized for treatment. The mice were monitored daily for adverse toxic effects and tumor volume was measured every 3-4 days using calipers. For establishing ES2 tumors, ES2/GFP/LUC cells were injected i.p. and tumors were measured twice a week using Xenogen in vivo imaging system. […] The mice were monitored daily for adverse toxic effects. […] The sections were scored by two independent evaluators blinded to the patient's clinical status.

[2] = tested on: MDA-MB-231 TNBC xenografts; experiment: MDA-MB-231 TNBC xenografts, ERX-41; type: in vivo; conditions: oral, 10 mg/kg/day
Method: Animal Studies: All animal experiments were performed using UTHSA and UTSW IACUC approved protocols. For cell based xenograft tumor assays, TNBC cells (2×10^5-2×10^6) were mixed with an equal volume of matrigel and implanted in the mammary fat pads of 6-week-old female athymic nude mice as described^33. BALB/c mice were used for D2A1 syngeneic model. Once tumors reached measurable size, mice were divided into control (vehicle) and ERX-41 (10 mg/kg/oral) treatment groups. Mice bearing TNBC PDX tumors were purchased from Jackson laboratory (TM00089; TM00096; TM00098). TNBC PDX line UTPDX0001 establishment was earlier described^38. WHIM-20 ER+PDX model was purchased from Horizon Labs. OCa-PDX-38 was received from UTHSA ObGyn tissue procurement core. When tumors reached ˜750 mm^3 they were dissected into 2 mm^3 pieces and implanted into the mammary fat pads of 6 weeks old female SCID or NSG mice. When the tumor volume reached ˜200 mm^3, mice were randomized for treatment. The mice were monitored daily for adverse toxic effects and tumor volume was measured every 3-4 days using calipers. For establishing ES2 tumors, ES2/GFP/LUC cells were injected i.p. and tumors were measured twice a week using Xenogen in vivo imaging system. At the end of each experiment, the mice were euthanized, and the tumors were removed, weighed and processed for histological studies and protein analysis. Dose were selected based on pilot MTD study of 10, 50 100 mg/kg of ERX-41 for 14 days using C57BL6 mice. The mice were monitored daily for adverse toxic effects. IHC analysis was conducted as described previously^39 and immunoreactivity was visualized using DAB substrate and counterstained with hematoxylin (Vector Laboratories Inc. Burlingame, CA). Control rabbit IgG staining was used as a negative control. The sections were scored by two independent evaluators blinded to the patient's clinical status.

[3] = tested on: four distinct TNBC PDXs; experiment: TNBC PDXs in mammary fat pad; type: in vivo, mice; conditions: daily oral, 10 mg/kg/day
Method: as §1

[4] = tested on: HSPA5, DDIT3, sXBP1 mRNA in TNBC cells; experiment: RT-qPCR of ER stress / UPR genes, TNBC cells; type: cell-based, Human
Method: Real-time quantitative PCR (RT-qPCR): Total RNA was prepared from breast cancer cells using the RNeasy Mini Kit (Qiagen) according to the manufacturer protocols. Subsequently, total RNAs were reverse transcribed into cDNA using iScript Reverse Transcription Supermix (Bio-rad) and by using SYBR Green on an Illumina Real-Time PCR system.

[5] = tested on: p-PERK, IRE1α, eIF2α, CHOP in TNBC cells; experiment: Western blotting of UPR proteins, TNBC cells; type: cell-based, Human; conditions: 1 μM
Method: Western blotting: Whole cell lysates from breast cancer cells were prepared with 2× sample buffer (60 mM Tris-HCl, pH 6.8, 2% sodium dodecyl sulfate, 10% glycerol), and before loading mixed with loading buffer (5% 2-mercaptoethanol, 0.1% bromophenol blue) and boiled for denaturation, as previously described.^33 Proteins were separated by SDS-PAGE and subjected to Western analysis using antibodies. To detect nascent translated proteins, puromycin (final concentration 10 μg/mL) was added into cell plates 30 minutes before harvesting cells. Then samples were subjected to the Western blotting. Nascent proteins were detected by anti-puromycin antibody.

[6] = tested on: MDA-MB-231 TNBC tumor xenografts; experiment: IHC of ER stress markers in TNBC xenografts after a single dose; type: in vivo, mice; conditions: single dose 10 mg/kg oral, within 24 h
Method: Immunohistochemistry: Immunohistochemical studies were performed as described previously.^7 For the immunohistochemical studies, tissue sections were blocked in background sniper (Biocare Medical, RS966L) followed by overnight incubation with primary antibodies anti-Ki-67 antibody (1:1000, GeneTex cat #GTX16667 RRID:AB_422351) (link), anti-CHOP antibody (1:2000, Sigma, Cat #HPA068416), anti-PERK (phospho T982) antibody (1:150, Abcam Cat #ab192591, RRID:AB_2728666) link)), anti-phospho-eIF2α (Ser51) (1:50, Cell signaling, cs3398) and subsequent secondary antibody incubation for 60 min at room temperature. Immunoreactivity was visualized by using the DAB substrate and counterstained with hematoxylin (Vector Lab, Inc.). Percent of Ki67 positive proliferating cells was calculated in five randomly selected high-power fields (×40).

[7] = tested on: ERα+ breast PDX (WHIM-20); experiment: ERα+ breast PDX WHIM-20; type: in vivo, NSG mice; conditions: 10 mg/kg daily
Method: as §1

Q: Which tolerability [1] does the source give for CC(C)COc1cc(C(=O)Nc2ccc(C(=O)N[C@H]3CC[C@H](C)CC3)cc2OCC(C)C)ccc1NC(=O)c1ccc([N+](=O)[O-])c(OCCO)c1 [ERX-41] here?
A: well tolerated by mice, with no clear evidence of toxicity

Q: What about the “extirpated tumor weights and sizes at end of study” value [2] of the same compound?
A: decreased tumor growth

Q: What about the “growth of established xenografts” value [2] of the same compound?
A: significantly decreased the growth

Q: What about the “overt toxicity, body weights of treated mice” value [2] of the same compound?
A: no alterations in body weights

Q: What about the “rates of growth of PDX tumors” value [3] of the same compound?
A: significantly decreased the rates of growth of the tumors

Q: And the “upregulation of HSPA5, DDIT3, sXBP1 mRNA” value ([4]; 1 μM, TNBC cells)?
A: 60-80 fold

Q: What about the “expression of sXBP1 and DDIT3, parental SUM-159” value ([4]; RT-qPCR, parental SUM-159 cells) of the same compound?
A: induces expression of UPR genes sXBP1 and DDIT3

Q: What about the “induction of ER stress / UPR proteins” value ([5]; p-PERK, IRE1α, eIF2α, CHOP) of the same compound?
A: induces ER stress and downstream UPR pathways

Q: And the “PERK activation and peIF2α, parental SUM-159” value ([5]; western)?
A: activates PERK

Q: What about the “ER stress markers in tumor xenograft tissues” value [6] of the same compound?
A: enhanced p-PERK, and p-eIF2α staining

Q: What about the “activity against WHIM-20 PDX” value [7] of the same compound?
A: has activity against
